Results as given in ChEMBL document CHEMBL1201862, “PubChem BioAssay data set” (2004).
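Five compound concentrations were applied to cells in 96-well plates for 48 hours; endpoints were derived by simple linear interpolation of the resulting dose-response curve. The concentration for 50% growth inhibition is given as GI50.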 Calls of active or inactive are those of the source. Rule as the data show it: active = GI50 up to about 1.1 µM and inactive = higher.

How the values were obtained:
Experiment in all cases: NCI anticancer screen, dose series, 48 h
[1] = system: 786-0
[2] = system: BT-549
[3] = system: DU-145
[4] = system: HT-29
[5] = system: KM12
[6] = system: LOX IMVI
[7] = system: MDA-MB-435
[8] = system: MOLT-4
[9] = system: OVCAR-4
[10] = system: OVCAR-8
[11] = system: SF-295
[12] = system: SK-MEL-2
[13] = system: SK-OV-3
[14] = system: SNB-19
[15] = system: SW-620
[16] = system: TK-10
[17] = system: HOP-92
[18] = system: NCI-H522
[19] = system: RXF 393
[20] = system: SK-MEL-28

SMILES | GI50 [1] | GI50 [2] | GI50 [3] | GI50 [4] | GI50 [5] | GI50 [6] | GI50 [7] | GI50 [8] | GI50 [9] | GI50 [10] | GI50 [11] | GI50 [12] | GI50 [13] | GI50 [14] | GI50 [15] | GI50 [16] | GI50 [17] | GI50 [18] | GI50 [19] | GI50 [20]
CCNC(=S)NNC(=O)c1csc(NC(=S)NC2CCCCC2)n1 | 6.52 µM (inactive) | 15.2 µM (inactive) | 12.1 µM (inactive) | > 100 µM (inactive) | 11.1 µM (inactive) | 5.83 µM (inactive) | 4.1 µM (inactive) | 3.11 µM (inactive) | 7.91 µM (inactive) | 10 µM (inactive) | 10.2 µM (inactive) | 12.3 µM (inactive) | 21.3 µM (inactive) | 37.5 µM (inactive) | 5.27 µM (inactive) | 19.1 µM (inactive) |  |  |  | 
C=C1CC(c2ccc(OCCCN3C(=O)c4ccccc4C3=O)c(OC)c2)OC1=O (configuration not stated) | 4.1 µM (inactive) |  | 11.9 µM (inactive) | 2.58 µM (inactive) | 10.8 µM (inactive) | 1.74 µM (inactive) | 2.04 µM (inactive) | 0.615 µM (active) | 1.06 µM (active) | 2.93 µM (inactive) | 11.2 µM (inactive) | 4.7 µM (inactive) | 15.4 µM (inactive) | 11.9 µM (inactive) | 1.56 µM (inactive) | 2.39 µM (inactive) | 1.62 µM (inactive) | 0.514 µM (active) | 1.95 µM (inactive) | 2.21 µM (inactive)
CC1(C)C2CC(c3ccncc3)ON2C(C)(C)N1O (configuration not stated) | > 100 µM (inactive) |  | > 100 µM (inactive) | > 100 µM (inactive) | > 100 µM (inactive) | > 100 µM (inactive) | > 100 µM (inactive) | > 100 µM (inactive) | > 100 µM (inactive) | > 100 µM (inactive) | > 100 µM (inactive) | > 100 µM (inactive) | > 100 µM (inactive) | > 100 µM (inactive) | > 100 µM (inactive) | > 100 µM (inactive) | > 100 µM (inactive) |  | > 100 µM (inactive) | > 100 µM (inactive)
BrC(=C(c1ccc(OC2CCCCO2)cc1)c1ccc(OC2CCCCO2)cc1)c1ccccc1 (configuration not stated) | > 100 µM (inactive) |  | > 100 µM (inactive) | > 100 µM (inactive) | > 100 µM (inactive) | > 100 µM (inactive) | > 100 µM (inactive) | > 100 µM (inactive) | > 100 µM (inactive) | > 100 µM (inactive) | > 100 µM (inactive) |  | > 100 µM (inactive) | > 100 µM (inactive) | > 100 µM (inactive) | 28.8 µM (inactive) | > 100 µM (inactive) |  | > 100 µM (inactive) | > 100 µM (inactive)
CC(C)(C)OC(=O)[C@H]1CCC(=S)N1Cc1ccccc1 | > 100 µM (inactive) |  | > 100 µM (inactive) |  | > 100 µM (inactive) | > 100 µM (inactive) | > 100 µM (inactive) | > 100 µM (inactive) | > 100 µM (inactive) | > 100 µM (inactive) | > 100 µM (inactive) | > 100 µM (inactive) | > 100 µM (inactive) | > 100 µM (inactive) | > 100 µM (inactive) | > 100 µM (inactive) | > 100 µM (inactive) | > 100 µM (inactive) | > 100 µM (inactive) | > 100 µM (inactive)
Cc1cc(S(=O)(=O)Nc2nc(N)nc(N(C)C)n2)c(SC(C(=O)O)c2ccccc2)cc1Cl (configuration not stated) | > 10 µM (inactive) | > 10 µM (inactive) | > 10 µM (inactive) | > 10 µM (inactive) | > 10 µM (inactive) | > 10 µM (inactive) |  | > 10 µM (inactive) | > 10 µM (inactive) | > 10 µM (inactive) | > 10 µM (inactive) | > 10 µM (inactive) | > 10 µM (inactive) | > 10 µM (inactive) | > 10 µM (inactive) | > 10 µM (inactive) | > 10 µM (inactive) | > 10 µM (inactive) | > 10 µM (inactive) | > 10 µM (inactive)
